Test results published in PMC6594753, “Cystic fibrosis drug ivacaftor stimulates CFTR channels at picomolar concentrations” (eLife, 2019).
Where “and” joins values, the source holds several entries; their conditions need not be identical. Identical values can stand only once. Like-named read-outs stand apart in the source and are kept apart here.

How the values were obtained:
WT CFTR [1] = biological target: T1, WT CFTR (Homo sapiens, UniProt P13569); assay: Macroscopic current recording in excised inside-out patches from Xenopus laevis oocytes; format: biochemical; conditions: for EC50: 2 mM ATP, 25°C, read-out: K0.5 for current stimulation
T1 construct: expressed in transfected cells; host or cells: Xenopus laevis oocytes injected with cRNA transcribed from pGEMHE-CFTR
T1 sequence (P13569 whole entry): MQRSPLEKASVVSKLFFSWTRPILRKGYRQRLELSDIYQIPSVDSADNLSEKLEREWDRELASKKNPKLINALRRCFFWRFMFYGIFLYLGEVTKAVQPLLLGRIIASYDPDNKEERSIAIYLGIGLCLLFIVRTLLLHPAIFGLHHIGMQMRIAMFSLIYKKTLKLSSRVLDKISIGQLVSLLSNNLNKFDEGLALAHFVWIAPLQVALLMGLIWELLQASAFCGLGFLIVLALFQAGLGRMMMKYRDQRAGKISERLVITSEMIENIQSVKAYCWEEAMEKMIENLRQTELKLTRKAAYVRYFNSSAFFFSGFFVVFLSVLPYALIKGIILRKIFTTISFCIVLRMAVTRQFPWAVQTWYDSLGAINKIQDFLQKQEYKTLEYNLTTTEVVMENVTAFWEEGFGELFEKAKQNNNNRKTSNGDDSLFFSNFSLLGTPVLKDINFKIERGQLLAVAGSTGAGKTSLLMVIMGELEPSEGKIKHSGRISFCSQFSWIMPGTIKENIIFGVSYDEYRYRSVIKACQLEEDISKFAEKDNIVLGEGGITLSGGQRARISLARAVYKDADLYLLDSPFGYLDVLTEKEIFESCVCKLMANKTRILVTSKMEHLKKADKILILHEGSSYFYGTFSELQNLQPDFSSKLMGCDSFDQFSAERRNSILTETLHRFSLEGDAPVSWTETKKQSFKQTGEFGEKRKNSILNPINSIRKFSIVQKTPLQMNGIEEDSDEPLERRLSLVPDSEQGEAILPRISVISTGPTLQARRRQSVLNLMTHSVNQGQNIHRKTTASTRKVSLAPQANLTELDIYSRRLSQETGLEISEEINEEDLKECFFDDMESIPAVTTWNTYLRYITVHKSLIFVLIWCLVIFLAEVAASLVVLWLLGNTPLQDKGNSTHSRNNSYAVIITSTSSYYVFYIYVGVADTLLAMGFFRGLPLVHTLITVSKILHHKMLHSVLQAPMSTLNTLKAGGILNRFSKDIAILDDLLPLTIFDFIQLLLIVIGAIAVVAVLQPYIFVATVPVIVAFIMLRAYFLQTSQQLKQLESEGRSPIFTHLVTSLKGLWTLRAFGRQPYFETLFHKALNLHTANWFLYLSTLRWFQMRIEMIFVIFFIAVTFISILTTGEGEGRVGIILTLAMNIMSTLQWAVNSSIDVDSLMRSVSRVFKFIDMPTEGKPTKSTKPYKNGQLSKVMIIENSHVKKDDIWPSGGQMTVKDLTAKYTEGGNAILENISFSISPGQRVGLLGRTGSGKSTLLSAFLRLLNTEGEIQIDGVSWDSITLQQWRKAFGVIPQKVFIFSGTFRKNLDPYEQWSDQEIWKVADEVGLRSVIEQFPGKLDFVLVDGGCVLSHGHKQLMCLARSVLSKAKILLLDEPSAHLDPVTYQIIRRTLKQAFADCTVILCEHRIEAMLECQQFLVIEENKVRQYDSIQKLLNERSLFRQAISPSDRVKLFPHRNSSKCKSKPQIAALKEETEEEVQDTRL
Description: (§1) We reasoned that this circumstance might explain some of the puzzling features of the drug, such as CFTR channel inactivation observed in some cases ([Cholon et al., 2014]), as well as apparent irreversibility of drug effects ([Jih and Hwang, 2013]; [Lin et al., 2016]; [Yeh et al., 2015]; [Yeh et al., 2017]; [Wang et al., 2014]; [Wang et al., 2018]). To investigate stability and reversibility of Vx-770 effects in a concentration range that can be achieved in the human body during oral drug administration, we tested the effects of our 1x saturated Vx-770 solution and its dilutions in inside-out patches excised from Xenopus laevis oocytes expressing WT or mutant human CFTR channels.
(§2) Patch pipette solution contained (in mM): 136 NMDG-Cl, 2 MgCl2, 5 HEPES, pH = 7.4 with NMDG. Bath solution contained (in mM): 134 NMDG-Cl, 2 MgCl2, 5 HEPES, 0.5 EGTA, pH = 7.1 with NMDG. MgATP (2 mM) was added from a 400 mM aqueous stock solution (pH = 7.1 with NMDG). Before each experiment 300 nM catalytic subunit of PKA (Sigma-Aldrich Kft., Budapest, Hungary) was applied for ~1 min to phosphorylate CFTR channels. Vx-770 (Selleck Chemicals) was diluted into the bath solution either from a ‘1x saturated’ aqueous stock solution (see above, concentration ~62 nM), or from a commercially obtained 10 mM stock dissolved in DMSO (Selleck Chemicals). Following patch excision the patch pipette was moved into a flow chamber, and recordings were done under continuous superfusion of the cytosolic patch surface. Solution compositions were exchanged using computer-driven electronic valves (solution exchange time constant <50 ms). After each recording day perfusion tubings were extensively washed with distilled water. Although supersaturated solutions of Vx-770 were not employed here, any perfusion tubing that had ever been in contact with a given concentration of Vx-770 was subsequently used only for solutions that contained the same, or higher, concentrations of the drug. After every 5–6 experimental days the entire perfusion system was replaced. Currents were recorded at 25°C, at a membrane potential of −40 mV, digitized at 10 kHz, Gaussian-filtered at 2 kHz, and recorded to disk (Axopatch 200B, Digidata 1322A, Pclamp9 (Molecular Devices, RRID: SCR_011323)). For display purposes, currents are shown filtered at 10 Hz and sampled at 20 Hz, and expanded single-channel traces (Figure 2b, Figure 4d) are shown filtered at 50 Hz and sampled at 250 Hz.
(§3) Vx-770 was applied after currents elicited by 2 mM ATP had stabilized. To allow for full development of its potentiator effect, Vx-770 was superfused until the current reached steady state which, for low nanomolar Vx-770, required up to 5–6 min. After full stimulation, Vx-770 was washed off for at least 5 min to allow the current to decline to a post-drug steady state. Fractional current stimulation by Vx-770 (I/Icontrol) was calculated as the mean steady current in the presence of the drug, divided by the average of the pre- and post-drug mean steady currents. Dose response curves (Figure 3c,f) were least-squares fitted to the modified Hill equation I/Icontrol=(K0.5^n+(Imax/Icontrol)[Vx-770]^n)/(K0.5^n+[Vx-770]^n), with Imax/Icontrol, K0.5, and n as free parameters.
To obtain apparent deactivation rates, current decay time courses following Vx-770 removal were fitted by single exponentials using least squares, and deactivation rates defined as the inverse of the decay time constant (1/τoff; Figure 4c). To obtain apparent activation rates, current activation time courses upon Vx-770 addition were fitted to an empirical three-step kinetic scheme S1→S2→S3→S4. Compound states S1-S4 in this scheme are not interpreted as channel conformational states, but rather as states of the entire system (aqueous solution +patch membrane leaflets + channels), and could reflect various stages of drug distribution among those compartments. […]

[2] = set-up: method as in FDA report by Vertex Pharmaceuticals Incorporated; conditions: patients, oral, ref FDA report by Vertex Pharmaceuticals Incorporated, cited from earlier work
G551D CFTR = biological target: T2, G551D CFTR (Homo sapiens, UniProt P13569, G551D); assay: Quasi-macroscopic current recording in excised inside-out patches from Xenopus laevis oocytes; format: biochemical
T2 construct: expressed in transfected cells; host or cells: Xenopus laevis oocytes injected with cRNA transcribed from mutated pGEMHE-CFTR
T2 sequence (P13569 whole entry G551D): as the sequence (P13569 whole entry) above, with G551D counted along it
Description: as §1
The G551D and ΔF508 mutations were introduced into pGEMHE-CFTR using the QuikChange Kit (Agilent, Santa Clara, CA, USA), and confirmed by automated sequencing; cDNA was purified (HiSpeed Plasmid Midi Kit, Qiagen), transcribed in vitro (mMessage T7 Kit, ThermoFisher Scientific, Waltham, MA USA) and cRNA stored at −80°C.
as §2, §3
To obtain apparent deactivation rates, current decay time courses following Vx-770 removal were fitted by single exponentials using least squares, and deactivation rates defined as the inverse of the decay time constant (1/τoff; Figure 4c). To obtain apparent activation rates, current activation time courses upon Vx-770 addition were fitted to an empirical three-step kinetic scheme S1→S2→S3→S4. […]

WT CFTR [3] = biological target: T1, WT CFTR; assay: Single-channel recording in excised inside-out patches, kinetic analysis of microscopic patches; format: biochemical
Description: as §2
Segments of current recording originating from 1 to 7 active channels were digitally filtered at 50 Hz, and idealized by half-amplitude threshold crossing. Steady-state open probabilities in 2 mM ATP, before or during application of Vx-770 or after its removal (Figure 2c), were calculated from the events lists as the time-average of the fraction of open channels. A closed-open-blocked (C-O-B) kinetic scheme, which separates brief (~10 ms) flickery closures (to state B) from long (~1 s) interburst closures (to state C), was fitted by maximum likelihood to the set of dwell-time histograms for all conductance levels, to obtain microscopic transition rates rCO, rOC, rOB, and rBO, while accounting for a fixed dead time of 6 ms ([Csanády, 2000]). The software is freely available upon request. Mean burst (τb) and interburst (τib) durations were calculated as τb=(1/rOC)(1 + rOB/rBO) and τib=1/rCO, and channel opening and closing rates (Figure 2c) defined as 1/τib and 1/τb, respectively. […]

[4] = diluted from 10 mM DMSO-based stock
[5] = single channel, 0.05x saturated (~3 nM) Vx-770

CC(C)(C)c1cc(C(C)(C)C)c(NC(=O)c2c[nH]c3ccccc3c2=O)cc1O [Vx-770, ivacaftor]
apparent activation time constant τ* (WT CFTR [1]; 0.01x saturated Vx-770 (assigned by b20: slower at low concentration), Figure 4a): 155 s
current stimulation (WT CFTR [1]; 1x saturated (~62 nM) Vx-770, 2 mM ATP, prephosphorylated channels, -40 mV): ~ 4 fold
time constant τ of current decline following drug removal (WT CFTR [1]; after 1x saturated (~62 nM) Vx-770, Figure 2a): 145 s
time constant τ of current decline following drug removal (WT CFTR [1]; after 1x saturated Vx-770): ~ 2 min
Hill coefficient (WT CFTR [1]; [4]): 1.32±0.47
EC50 (WT CFTR [1]; [4]): 0.49 ± 0.15 nM
Hill coefficient (WT CFTR [1]; diluted from 1x saturated aqueous stock): 1.31±0.65
EC50 (WT CFTR [1]; diluted from 1x saturated aqueous stock, assuming 62 nM): 0.47 ± 0.12 nM
delay of onset of current stimulation (WT CFTR [1]; subnanomolar/low nanomolar aqueous drug concentrations): ≤ 1 min
reversibility of Vx-770 effects (WT CFTR [1]; upon removal of 1x saturated Vx-770): full reversibility
apparent K0.5 lower (affinity higher) than previously reported (WT CFTR [1]; versus ~300 nM reported): ~ 600 fold and 600 fold
peak plasma concentration ([2]; twice daily 150 mg (therapeutic)): ~ 4 μM
peak plasma concentration ([2]; twice daily 450 mg (supratherapeutic)): > 10 µM
Hill coefficient (G551D CFTR): 1.22±0.10
potency higher than previously reported (G551D CFTR): ~ 200 fold
reversibility of current stimulation (G551D CFTR): fully reversible
time constant of reversal (G551D CFTR): ~ 2 min
EC50 (G551D CFTR; diluted from 1x saturated aqueous stock, 2 mM ATP, read-out: K0.5 for current stimulation): 1.42 nM and ~1.5 nM
stimulation of open probability (WT CFTR [3]; 0.05x saturated (~3 nM) Vx-770 (20-fold dilution of 1x stock), 2 mM ATP): ~ 4 fold
reversibility of effects on channel gating (WT CFTR [3]; following washout of 0.05x saturated Vx-770): fully reversible
time of switch back to low-activity gating after drug removal (WT CFTR [3]; [5]): ~ 5 min
time of switch from low- to high-activity gating after initiation of drug exposure (WT CFTR [3]; [5]): ~ 3 min
